How the values were obtained:
Experiment in all cases: relative viability (nuclei count vs DMSO), 5 days (fraction); higher = more cells survive
[1] = compound: CN(C)C[C@@H]1CCn2cc(c3ccccc32)C2=C(C(=O)NC2=O)c2cn(c3ccccc23)CCO1 [Ruboxistaurin] + CC(=O)Nc1cccc(-n2c(=O)n(C3CC3)c(=O)c3c(Nc4ccc(I)cc4F)n(C)c(=O)c(C)c32)c1 [Trametinib] (partner 0.02 µM)
In short: (§1)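 Lung cancer cell lines were seeded in 1536-well plates and dosed by pin tool the next day, with either a single drug or a fixed anchor-drug dose combined with five library-drug doses (not always all listed) spaced in √10 steps. Five days later, one step fixed the cells and stained their nuclei (final 0.05% Triton X-100, 1% formaldehyde, 1 ug/ml Hoechst), and nuclei were counted on 4× images. Relative viability is the nuclei count in treated wells divided by the count in vehicle wells, and each value is the median of duplicate plates.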

[2] = compound: CN(C)C[C@@H]1CCn2cc(c3ccccc32)C2=C(C(=O)NC2=O)c2cn(c3ccccc23)CCO1 [Ruboxistaurin] + CC(=O)c1c(C)c2cnc(Nc3ccc(N4CCNCC4)cn3)nc2n(C2CCCC2)c1=O [Palbociclib] (partner 0.5 µM)
In short: as §1

[3] = compound: CN(C)C[C@@H]1CCn2cc(c3ccccc32)C2=C(C(=O)NC2=O)c2cn(c3ccccc23)CCO1 [Ruboxistaurin] + Cc1cc(Nc2cc(N3CCN(C)CC3)nc(Sc3ccc(NC(=O)C4CC4)cc3)n2)n[nH]1 [Tozasertib] (partner 0.1 µM)
In short: as §1

[4] = compound: CN(C)C[C@@H]1CCn2cc(c3ccccc32)C2=C(C(=O)NC2=O)c2cn(c3ccccc23)CCO1 [Ruboxistaurin] + Cc1nc(Nc2ncc(C(=O)Nc3c(C)cccc3Cl)s2)cc(N2CCN(CCO)CC2)n1 [Dasatinib] (partner 0.075 µM)
In short: as §1

[5] = compound: CN(C)C[C@@H]1CCn2cc(c3ccccc32)C2=C(C(=O)NC2=O)c2cn(c3ccccc23)CCO1 [Ruboxistaurin] + NC(=O)Nc1cc(-c2cccc(F)c2)sc1C(=O)N[C@H]1CCCNC1 [AZD7762] (partner 0.2 µM)
In short: as §1

Cell Line	relative viability ([1]; first compound 0.08 µM)	relative viability ([1]; first compound 0.8 µM)	relative viability ([1]; first compound 2.53 µM)	relative viability ([1]; first compound 8 µM)	relative viability ([2]; first compound 0.08 µM)	relative viability ([2]; first compound 0.8 µM)	relative viability ([2]; first compound 2.53 µM)	relative viability ([2]; first compound 8 µM)	relative viability ([3]; first compound 0.08 µM)	relative viability ([3]; first compound 0.8 µM)	relative viability ([3]; first compound 2.53 µM)	relative viability ([3]; first compound 8 µM)	relative viability ([4]; first compound 0.08 µM)	relative viability ([4]; first compound 0.8 µM)	relative viability ([4]; first compound 2.53 µM)	relative viability ([4]; first compound 8 µM)	relative viability ([5]; first compound 0.08 µM)	relative viability ([5]; first compound 0.8 µM)	relative viability ([5]; first compound 2.53 µM)	relative viability ([5]; first compound 8 µM)
NCI-H647	0.568	0.374	0.473	0.431	0.473	0.395	0.432	0.415	0.199	0.272	0.369	0.172	0.185	0.127	0.149	0.154	0.529	0.422	0.452	0.371
NCI-H2009	0.328	0.234	0.258	0.239	0.218	0.234	0.242	0.221	0.765	0.678	0.768	0.473	0.341	0.225	0.267	0.225				
EPLC-272H	0.347	0.228	0.27	0.257	0.312	0.352	0.285	0.317	0.205	0.247	0.253	0.247	0.354	0.371	0.342	0.282	0.263	0.108	0.276	0.0372
NCI-H520	0.831	0.627	0.808	0.617	0.236	0.222	0.246	0.185	0.477	0.456	0.398	0.456	0.195	0.157	0.176	0.129				
NCI-H2405	0.727	0.597	0.727	0.616	0.545	0.538	0.522	0.486	0.764	0.613	0.726	0.722	0.184	0.239	0.174	0.222	0.817	0.701	0.8	0.715
NCI-H2085	0.67	0.538	0.64	0.502	0.472	0.479	0.452	0.56	0.846	0.74	0.773	0.797	0.204	0.254	0.294	0.219	1.05	0.957	1.14	0.981
NCI-H322M	0.538	0.477	0.535	0.404	0.492	0.47	0.454	0.384	0.49	0.426	0.431	0.346	0.265	0.267	0.257	0.228	0.56	0.564	0.573	0.475
NCI-H1944	0.402	0.312	0.395	0.358	0.347	0.298	0.343	0.295	0.249	0.206	0.239	0.237	0.209	0.204	0.205	0.189	0.477	0.544	0.524	0.492
LC-2-ad	0.953	0.877	0.928	0.984	0.469	0.424	0.45	0.532	0.55	0.45	0.476	0.475	0.672	0.651	0.575	0.558	0.882	0.807	0.862	0.813
NCI-H358	0.159	0.116	0.125	0.112	0.14	0.128	0.129	0.131	0.116	0.0986	0.118	0.0882	0.177	0.149	0.149	0.148	0.593	0.48	0.519	0.49
NCI-H2170	0.932	0.828	0.931	0.928	0.397	0.337	0.371	0.386	0.719	0.737	0.686	0.745	0.592	0.61	0.489	0.519	0.901	0.783	0.95	0.964
A-427	0.88	0.692	0.752	0.548	0.554	0.524	0.5	0.538	0.19	0.184	0.232	0.157	0.677	0.639	0.675	0.374	0.849	0.639	0.709	0.516
NCI-H1666	0.903	0.795	0.865	0.877	0.659	0.608	0.606	0.726	0.653	0.571	0.582	0.503	0.82	0.844	0.764	0.92	0.855	0.992	0.921	0.892
LOU-NH91	0.802	0.751	0.807	0.773	0.536	0.518	0.52	0.571	0.744	0.509	0.674	0.76	0.612	0.503	0.56	0.528	0.823	0.74	0.792	0.726
ABC-1					0.953	0.724	0.968	1.05	0.178	0.163	0.184	0.22	0.638	0.56	0.633	0.465	0.662	0.894	0.771	0.598
NCI-H1651	0.891	0.736	0.805	0.858	0.528	0.482	0.531	0.494	0.922	0.639	0.8	0.521	0.436	0.339	0.356	0.435	0.495	0.476	0.45	0.421

Cell Line	relative viability ([1]; first compound 0.08 µM)	relative viability ([1]; first compound 0.8 µM)	relative viability ([1]; first compound 2.53 µM)	relative viability ([1]; first compound 8 µM)	relative viability ([2]; first compound 0.08 µM)	relative viability ([2]; first compound 0.8 µM)	relative viability ([2]; first compound 2.53 µM)	relative viability ([2]; first compound 8 µM)	relative viability ([3]; first compound 0.08 µM)	relative viability ([3]; first compound 0.8 µM)	relative viability ([3]; first compound 2.53 µM)	relative viability ([3]; first compound 8 µM)	relative viability ([4]; first compound 0.08 µM)	relative viability ([4]; first compound 0.8 µM)	relative viability ([4]; first compound 2.53 µM)	relative viability ([4]; first compound 8 µM)	relative viability ([5]; first compound 0.08 µM)	relative viability ([5]; first compound 0.8 µM)	relative viability ([5]; first compound 2.53 µM)	relative viability ([5]; first compound 8 µM)
HCC-44	1.02	1	1.06	1.21	0.986	1	0.953	0.968	1.05	0.919	1.1	1.09					1.02	1.01	1.02	1.07
SK-LU-1	0.575	0.418	0.717	0.422	0.427	0.342	0.429	0.381	0.414	0.33	0.323	0.265	0.195	0.145	0.163	0.169				
NCI-H1703																	0.111	0.115	0.122	0.119
NCI-H2023	0.668	0.491	0.47	0.405	0.381	0.31	0.333	0.393	0.327	0.256	0.207	0.181	0.579	0.453	0.523	0.439				
NCI-H661	0.667	0.528	0.681	0.703	0.424	0.416	0.437	0.46	0.366	0.332	0.372	0.344	0.982	0.776	1.01	1.04				
COR-L 105	0.43	0.364	0.463	0.441	0.418	0.389	0.411	0.416	0.385	0.367	0.304	0.254	0.352	0.236	0.362	0.262				
NCI-H2228	0.517	0.379	0.525	0.368	0.845	0.631	0.863	0.693	0.317	0.202	0.237	0.187	0.615	0.493	0.49	0.456				
NCI-H596	0.892	0.766	0.727	0.796					0.932	0.8	0.729	0.889	0.65	0.488	0.63	0.547	1.14	0.942	0.972	0.812
NCI-H1650	0.698	0.447	0.613	0.571	0.416	0.324	0.455	0.372	0.435	0.301	0.433	0.3	0.418	0.273	0.331	0.254				
NCI-H1792	0.646	0.336	0.446	0.41	0.632	0.617	0.645	0.669					0.829	0.667	0.77	0.781	0.775	0.576	0.533	0.389
SK-MES-1	0.629	0.508	0.492	0.442	0.331	0.27	0.331	0.361	0.948	0.808	0.887	0.789	0.395	0.308	0.329	0.339				
UMC-11	0.766	0.623	0.649	0.577	0.327	0.388	0.289	0.338	0.203	0.211	0.248	0.177	0.481	0.455	0.429	0.434				
NCI-H1563													0.499	0.502	0.465	0.404				
COR-L23	0.749	0.581	0.571	0.59	0.261	0.267	0.313	0.372	0.221	0.167	0.202	0.153	0.489	0.399	0.549	0.602				
SW 1573	0.527	0.491	0.549	0.516	0.433	0.371	0.354	0.523	0.256	0.19	0.168	0.124	0.52	0.331	0.452	0.456				

From the supplement of paper PMC10307832
